Assay [1] relates to pCREB^S133 / ATF1 / PCNA in HaCaT cells. In words: western blot analysis of treated HaCaT cells (pCREB, ATF1, PCNA). Format: cell-based, human. As to conditions: for levels of active pCREB^S133 or ATF1 (western blot): HaCaT treated cells (FIG. 11B). Here is the method: (§1) In order to examine the underlying mechanism, the inventors next examined whether increased repair and proliferation is facilitated via the CAMP response element binding protein (CREB). First, the inventors utilized human keratinocyte cells (HaCaT). Cells were starved (serum-free) for 16 hours and then administered with Dimethyl sulfoxide (DMSO; carrier/solvent control), White Widow (WW) extract or cannabigerol (CBG). Next, the inventors performed immunofluorescence for activated phosphorylated CREB using specific antibodies.
In order to verify these findings, the inventors next performed western blot analysis of treated cells (as outlined above).
In general terms: In western blotting, separated proteins are transferred to a membrane and probed.

The test system of assay [2] is NF-kappa-B (p65; NF-κB) transcription factor. Nature of the assay: TNF-α-induced NF-κB (p65) translocation in HaCaT keratinocytes, immunofluorescence. Type of assay: cell-based, Human. Conditions: 30 minutes; for translocation of NF-kappa-B (p65) to the nucleus: serum starved 16 hours, extract 1 μg/ml, cannabinoids 10 μM (FIG. 4A). As to the method: In order to examine the underlying mechanism, the inventors next examined whether improving health of the epidermis in psoriasis is dependent upon the NF-kappa-B (p65; NF-κB) transcription factor. NF-κB transcription factor is known to be active in psoriasis and high expression of its target genes leads to enhanced proliferation and inflammation (Goldminz et al., 2012). Human keratinocyte cells (HaCaT) were utilized. Cells were serum starved for 16 hours and then either non-treated (NTC) or administered with TNF-α along with either DMSO (Ctrl), Infinity (INF) extract, CBN, CBG, or THC at a concentration according to Table 2. Immunofluorescence was next performed for activated NF-κB using specific antibodies. The present data clearly indicate that, in response to TNF-α, the NF-κB (p65) transcription factor translocated to the nucleus.

Assay [3] relates to 1 cm^2 whole-thickness dorsal wounds. In words: whole-thickness dorsal wound healing and regeneration in mice. Conditions: for wound healing by single cannabinoids, compared with WW strain: IP every second day, CBG 0.11 mg/kg, THC 3.7 mg/kg (FIGS. 10B-10C). Type of assay: in vivo. Here is the method:
To this end, 1 cm^2 whole-thickness dorsal wounds were inflicted on male or female 8-week-old wildtype (WT; C57BL/6J background) mice (n=at least 3 mice per group) and the wounded mice were treated with 5 mg/kg of each strain via intraperitoneal (IP) injection every two days (FIG. 9D). Dorsal wound coverage was measured by determining wound size (%) relative to the initial wound size.
Next, the inventors sought to understand whether any single cannabinoid component of the WW strain could potentiate the WW-induced phenotypes (FIG. 10A). For this, male and female mice (8-weeks-old) on WT (wild type; C57BL/6J) background were administered IP injections of cannabigerol (CBG; 0.11 mg/kg), tetrahydrocannabinol (THC; 3.7 mg/kg), cannabinol (CBN; 0.155 mg/kg), or cannabichromene (CBC; 0.0375 mg/kg), and dorsal wound was inflicted (n=at least 3 mice per group). Cannabinoid solutions are prepared by dissolving pure cannabinoids in 100% ethanol (EtOH) to a stock concentration of 100 mg/ml. Further dilution was achieved by preparing a 1:1:18 working solution of 100% EtOH:Cremophor:1×PBS. 100 μl was administered via IP injection to each mouse every second day starting from the day of wound infliction.

Assay [4] deals with cAMP response element binding protein (CREB). In words: CREB phosphorylation in HaCaT keratinocytes, immunofluorescence. Format: cell-based, human. As to conditions: serum-free 16 hours, 30 minutes post-stimulation, WW 1 μg/ml, CBG 10 μM (FIG. 11A). As to the method: as §1
A further assay deals with CREB. Nature of the assay: CREB phosphorylation in healing wounds in vivo, immunofluorescence. Further details: species or system mice. An excerpt:
Thereafter, the inventors examined whether CREB is phosphorylated in healing wounds. The inventors performed full-thickness excisional wounds (as described above) and harvested wounds at 8 days post wound infliction.

The subject of assay [5] is 5%-Imiquimod (IMQ) model of psoriasis. Nature of the assay: topical 5%-Imiquimod (IMQ) model of psoriasis in mice. Type of assay: in vivo. As to the method:
The therapeutic potentials of five different cannabis strains were determined (namely, Infinity (INF), White Widow (WW), Cannatonic (CNT), Dance Hall (DH), and Green Crack (GC)), utilizing an in vivo setting of skin pathology. For this aim, the topical 5%-Imiquimod (IMQ) model of psoriasis (FIGS. 1A-1B) was employed. In this model, 62.5 mg of IMQ cream is applied topically on depilated dorsal skins of mice (Fits et al., 2009) every second day concurrent with administration of extracts. Extracts were administered at 5 mg/kg dose via intraperitoneal (i.p.) injection.
Examining the cannabinoid constituents of INF, the inventors next applied IMQ and treated mice with either control (vehicle only), the 5 mg/kg INF extract, 1.6 mg/kg CBN, 0.1 mg/kg CBG, 3.7 mg/kg THC, or 0.04 mg/kg CBC (FIG. 3A).
Further, the recruitment of CD3^+ T cells to the epidermis was examined in 5% IMQ-treated skins.

Assay [6] relates to tail skin sebaceous glands (SGs). Nature of the assay: DBL-induced acne in mouse tail skin in vivo. On the set-up: species or system mice. Conditions: DBL intradermal at tail base every second day for 10 days, treated from day 4; 5 mg/kg INF extract, 1.6 mg/kg CBN.
In assay [7] the test system is NF-kappa-B (p65; NF-κB) signaling. In words: TNF-α-induced NF-κB (p65) translocation in Blimp1+ sebocytes, immunofluorescence. Format: cell-based, mouse. As to conditions: serum starved 16 hours, TNF-α (FIGS. 8A-8B). As to the method: In order to examine the underlying mechanism, the inventors assessed the effects of INF, THC and CBN in acne and whether it is mediated through downregulation of NF-kappa-B (p65; NF-κB) signaling. NFκB transcription factor is known to be active in acne and high expression of its target genes leads to enhanced proliferation and inflammation (Kang et al., 2005). The inventors utilized mouse primary sebaceous gland progenitors (Blimp1^+ sebocytes). Cells were serum starved for 16 hours and then either non-treated (NTC) or administered with TNF-α along with either DMSO (Ctrl), Infinity (INF) extract, CBN or THC (FIGS. 8A-8B). The inventors next performed immunofluorescence for activated NF-κB using specific antibodies. The present data clearly indicate that in response to TNF-α the NF-κB (p65) transcription factor translocates to the nucleus in Blimp1^+ sebocytes.

Where [8] appears, read: IMQ-treated mice, 5 mg/kg INF extract, 3.7 mg/kg THC (FIGS. 3B-3D).

As for `CCCCCc1cc(O)c2c(c1)OC(C)(CCC=C(C)C)C=C2` (centres unmarked) [CBC, cannabichromene], the “levels of active pCREB^S133 or ATF1 (western blot)” value (“levels of active pCREB^S133 or ATF1” below) in assay [1] was “only minimal (if any) effect”.

As for `CCCCCc1cc(O)c(C/C=C(\C)CCC=C(C)C)c(O)c1` [CBG, cannabigerol], the “translocation of NF-kappa-B (p65) to the nucleus” value (“translocation of NF-kappa-B (p65)” for short) in assay [2] is recorded as “had no effect”. The “epidermal invaginations in treated skins, 8 days post wounding” value in assay [3] (CBG 0.11 mg/kg IP every second day (FIG. 10D)) was “considerably more epidermal invaginations”. The “regenerated hair follicles in wounds, 18 days” value in assay [3] (CBG 0.11 mg/kg IP every second day (FIGS. 10E-10F)) is “striking number of regenerated hair follicles”. For the same molecule, in assay [3], the “wound healing by single cannabinoids, compared with WW strain” value is “healed comparably to the WW strain”. In assay [4], the “CREB phosphorylation (pCREB^S133) and translocation to the nucleus” value is on record as “highly phosphorylated”. Further, in assay [1], the “levels of active pCREB^S133 or ATF1” value is “high phosphorylation of CREB and ATF”. Further, the “proliferation as indicated by the proliferation marker PCNA” value in assay [1] (HaCaT treated cells (FIG. 11C)) is recorded as “increased proliferation”. Moreover, the “localisation of activated p-CREB in treated wounds” value in the assay with CREB (CBG-treated wounds (FIG. 11F)) is on record as “co-expressed with proliferative markers”. The “activated pCREB^S133 in the epidermis adjacent to the wound” value with CREB (full-thickness excisional wounds, 8 days post wound infliction (FIGS. 11D-11E)) is recorded as “dramatic increase”.

For `CCCCCc1cc(O)c2c(c1)OC(C)(C)c1ccc(C)cc1-2` [CBN, cannabinol], the “recruitment of CD3+ T cells to the epidermis” value in assay [5] (5% IMQ-treated skins, harvested 8 days post administration (FIG. 5)) was “substantially reduced”. Moreover, the “inhibition of NF-κB (p65) translocation, comparison between treatments (% nuclear NF-κB positive cells)” value in assay [2] (10 μM (FIG. 4B)) is given as “best results of inhibition”. For the same molecule, the “translocation of NF-kappa-B (p65)” value in assay [2] is given as “strongly inhibited”. Also, in assay [6], the SG cell hyperproliferation result is “prevented” and the sebum over-production result is on record as “prevented”. For the same molecule, the “translocation of NFκB (p65) to the nucleus” value in assay [7] was “strongly inhibited”. In addition, in assay [1], the “levels of active pCREB^S133 or ATF1” value is reported as “only minimal (if any) effect”.

Turning to `CCCCCc1cc(O)c2c(c1)OC(C)(C)[C@@H]1CCC(C)=C[C@@H]21` [THC, tetrahydrocannabinol], in assay [5] (setting [8]), the “decreasing abnormal levels of proliferation” value is given as “comparable” and the “prevention of overgrowth of the epidermis” value was “comparable”. The “translocation of NF-kappa-B (p65)” value in assay [2] is given as “strongly inhibited”. The “translocation of NFκB (p65) to the nucleus” value in assay [7] is given as “strongly inhibited”. The “wound healing by single cannabinoids, compared with WW strain” value in assay [3] is “to some extent”. In assay [1], the “levels of active pCREB^S133 or ATF1” value is “only minimal (if any) effect”.

For the origin of these results see patent US20240180931A1, “CANNABINOIDS AND USES THEREOF IN TREATMENT OF A DISEASE” (TECHNION RESEARCH & DEVELOPMENT FOUNDATION LIMITED, priority 2021, published 2024).
